Data on one compound can be found in BindingDB's records for PubMed 35119267 (University of Toronto Mississauga, 2022).

Broadly, the IC50 is the point on the concentration scale where inhibition reaches its midpoint.

For the assay, the target named is Histone deacetylase 3 (Homo sapiens, UniProt O15379). The assay is described as follows: Inhibition of full length human recombinant HDAC3 expressed in Sf9 baculovirus system using FAM-labeled acetylated peptide as substrate by measuring fluorescence intensity by EMSA method. (A gel shift assay detects complexes by their altered migration in electrophoresis.)
Chain of Histone deacetylase 3 (O15379 whole entry): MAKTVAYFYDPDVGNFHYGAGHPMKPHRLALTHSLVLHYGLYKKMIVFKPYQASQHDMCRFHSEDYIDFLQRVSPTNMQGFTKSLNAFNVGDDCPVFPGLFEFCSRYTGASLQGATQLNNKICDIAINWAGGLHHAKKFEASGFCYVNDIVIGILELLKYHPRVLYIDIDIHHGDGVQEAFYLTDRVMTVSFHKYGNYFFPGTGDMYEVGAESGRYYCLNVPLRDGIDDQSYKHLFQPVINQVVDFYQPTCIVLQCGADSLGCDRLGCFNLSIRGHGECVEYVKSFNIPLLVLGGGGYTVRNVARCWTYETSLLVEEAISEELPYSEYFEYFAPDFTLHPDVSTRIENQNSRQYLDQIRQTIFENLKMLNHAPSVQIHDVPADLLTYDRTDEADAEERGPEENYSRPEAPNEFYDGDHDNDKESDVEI

Consider `O=C(NO)c1ccc(CN(C2CC2)S(=O)(=O)c2cc(F)c(F)c(F)c2F)cc1`, for which the IC50 was > 1 µM.
